This passage reports IC50 results from patent US8883801B2, “Substituted pyrazolo[1,5-a]pyrimidines as mTOR inhibitors” (Merck Sharp & Dohme Corp., priority 2010, dated 2014).

The structures appear in SMILES notation.

The target in this assay is human mTOR enzyme (Homo sapiens, UniProt P42345). The assay is described as follows: HTRF mTOR enzyme (kinase) assay. The note with it: rated class; 5 μM ATP, 0.2 μM GST-S6K; read-out: hMTOR IC50. It counts as biochemical. The method, then: Methods: An HTRF mTOR enzyme assay was developed to assess the compounds' inhibitory activity. The mTOR assay buffer contained 10 mM Hepes (pH 7.4), 50 mM NaCl, […] BSA, 50 mM […], 10 mM MnCl2 and 0.5 mM DTT. […] 20 ng of human mTOR enzyme (<5% pure was preincubated with the compound for 10 minutes followed by the addition of 5 μM ATP and 0.2 μM GST-S6K (Zhang et al., Protein Expression and Purification 46, pp 414-420 (2006)). The reaction was incubated for one hour at 30° C. Anti phospho p70-S6K(Thr389) (˜1.7 ng/well, anti-phospho-p70S6K-cryptate (Pho-p70S6-Kin-K cat#64CUSKAY, from Cisbio)) and anti GST-XL665 (1:1 Ratio with the substrate GST-S6K, anti GST-XL665, cat#61GSTXLB) Cisbio) were added after the reaction was stopped. The plates were read (PHERAstar, BMG) at least 2 hours after adding the anti phospho p70-S6K and the anti GST-XL665.
Sequence of human mTOR enzyme (P42345 1360-2549 limits assumed): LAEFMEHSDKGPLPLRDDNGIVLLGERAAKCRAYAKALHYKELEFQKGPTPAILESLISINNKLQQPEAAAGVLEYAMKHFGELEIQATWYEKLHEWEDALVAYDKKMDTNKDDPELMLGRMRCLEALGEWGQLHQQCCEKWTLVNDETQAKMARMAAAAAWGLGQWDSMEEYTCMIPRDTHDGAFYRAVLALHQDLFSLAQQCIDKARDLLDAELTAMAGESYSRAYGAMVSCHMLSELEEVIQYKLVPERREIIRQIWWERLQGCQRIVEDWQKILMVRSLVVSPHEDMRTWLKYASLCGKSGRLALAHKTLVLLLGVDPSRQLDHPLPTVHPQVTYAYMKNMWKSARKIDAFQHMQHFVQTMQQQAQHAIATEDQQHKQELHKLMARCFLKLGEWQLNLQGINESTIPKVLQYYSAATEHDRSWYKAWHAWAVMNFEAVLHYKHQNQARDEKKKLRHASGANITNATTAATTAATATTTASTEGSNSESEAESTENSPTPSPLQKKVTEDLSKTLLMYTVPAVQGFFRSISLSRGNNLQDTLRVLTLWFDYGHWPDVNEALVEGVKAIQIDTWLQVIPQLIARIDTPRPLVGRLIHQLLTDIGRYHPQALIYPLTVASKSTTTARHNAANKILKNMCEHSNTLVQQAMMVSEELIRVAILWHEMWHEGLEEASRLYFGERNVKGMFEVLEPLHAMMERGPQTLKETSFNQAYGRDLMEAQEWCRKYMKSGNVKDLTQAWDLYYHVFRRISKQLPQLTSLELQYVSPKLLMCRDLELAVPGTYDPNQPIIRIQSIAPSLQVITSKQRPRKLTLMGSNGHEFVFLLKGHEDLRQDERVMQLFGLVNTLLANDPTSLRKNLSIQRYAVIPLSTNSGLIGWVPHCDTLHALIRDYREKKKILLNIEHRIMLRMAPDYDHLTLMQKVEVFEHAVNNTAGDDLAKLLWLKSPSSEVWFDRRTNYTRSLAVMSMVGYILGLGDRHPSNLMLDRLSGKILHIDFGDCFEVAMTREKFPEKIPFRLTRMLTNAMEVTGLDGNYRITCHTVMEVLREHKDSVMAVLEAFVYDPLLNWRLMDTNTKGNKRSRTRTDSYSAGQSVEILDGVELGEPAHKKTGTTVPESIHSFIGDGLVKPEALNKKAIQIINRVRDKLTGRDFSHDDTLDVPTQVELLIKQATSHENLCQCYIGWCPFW
IC50 DETERMINATIONS: Dose-response curves were plotted from the inhibition data generated, each in duplicate, from 8 point serial dilutions of inhibitory compounds. Concentration of compound was plotted against the HTRF em665/em590 ratio signal. To generate IC50 values, the dose-response curves were fitted to a standard sigmoidal curve and IC50 values were derived by nonlinear regression analysis.

On to `COC(=O)c1cccc(-c2ccc(-c3cnn4c(N)c(C(C)=O)c(C5CCC(O)(CO)CC5)nc34)cn2)c1` (centres unmarked) [Compound 150, methyl 3-(5-(6-acetyl-7-amino-5-(4-hydroxy-4-(hydroxymethyl)-cyclohexyl)-pyrazolo-[1,5-a]pyrimidin-3-yl)pyridin-2-yl)benzoate], for which the IC50 lay within 1 to 100 nM.
Then `COCCO[C@]1(C(=O)O)CC[C@H](c2nc3c(-c4ccc(-c5nccs5)nc4)cnn3c(N)c2C(C)=O)CC1` [Compound 59], with 1 to 100 nM.
As for `COCCO[C@]1(C(=O)c2nnc[nH]2)CC[C@H](c2nc3c(-c4cnn(-c5ccccc5)c4)cnn3c(N)c2S(C)(=O)=O)CC1` [Compound 123, ((1S,4S)-4-(7-amino-6-(methylsulfonyl)-3-(1-phenyl-1H-pyrazol-4-yl)pyrazolo[1,5-a]pyrimidin-5-yl)-1-(2-methoxyethoxy)cyclohexyl)(4H-1,2,4-triazol-3-yl)methanone], the figure is 1 to 100 nM.
In the case of `COCCO[C@]1(C(=O)O)CC[C@H](c2nc3c(-c4ccc(-c5cscn5)nc4)cnn3c(N)c2C(C)=O)CC1` [Compound 61, (1S,4S)-4-(6-acetyl-7-amino-3-(6-(thiazol-4-yl)pyridin-3-yl)pyrazolo[1,5-a]pyrimidin-5-yl)-1-(2-methoxyethoxy) cyclohexanecarboxylic acid], the IC50 is 1 to 100 nM.
As for `COCC1(CO)CCC(c2nc3c(-c4cnn(-c5ccccc5)c4)cnn3c(N)c2Br)CC1` (centres unmarked) [Compound 167, (4-(7-amino-6-bromo-3-(1-phenyl-1H-pyrazol-4-yl)pyrazolo[1,5-a]pyrimidin-5-yl)-1-(methoxymethyl)-cyclohexyl)methanol], the figure is 1 to 100 nM; as for `COC[C@]1(C(=O)O)CC[C@H](c2nc3c(-c4cnn(-c5ccccc5)c4)cnn3c(N)c2C(C)=O)CC1` [Compound 20, (1R,4R)-4-(6-acetyl-7-amino-3-(1-phenyl-1H-pyrazol-4-yl)pyrazolo[1,5-a]pyrimidin-5-yl)-1-(methoxymethyl)-cyclohexane-carboxylic acid], 100 to 1000 nM; as for `COCCONC(=O)[C@]1(OCCOC)CC[C@H](c2nc3c(-c4cnn(-c5ccccc5)c4)cnn3c(N)c2S(C)(=O)=O)CC1` [Compound 101], 1 to 100 nM.
As for `CO[C@]1(CC(=O)O)CC[C@H](c2nc3c(-c4ccc(-c5ccccc5)nc4)cnn3c(N)c2Br)CC1` [Compound 80, 2-((1S,4S)-4-(7-amino-6-bromo-3-(6-phenylpyridin-3-yl)pyrazolo[1,5-a]pyrimidin-5-yl)-1-methoxycyclohexyl)acetic acid], the figure is 100 to 1000 nM; as for `COCCO[C@]1(C(=O)O)CC[C@@H](c2nc3c(-c4ccc(-c5ccn(C)n5)[n+]([O-])c4)cnn3c(N)c2S(C)(=O)=O)CC1` [Compound 45, 5-(7-amino-5-((1R,4R)-4-carboxy-4-(2-methoxyethoxy)cyclohexyl)-6-(methylsulfonyl)-pyrazolo[1,5-a]pyrimidin-3-yl)-2-(1-methyl-1H-pyrazol-3-yl)pyridine 1-oxide], 1 to 100 nM.
Then `CO[C@]1(CC(=O)O)CC[C@@H](c2nc3c(-c4ccc(-c5ccccc5)nc4)cnn3c(N)c2Br)CC1` [Compound 81], with 100 to 1000 nM; and `COCCO[C@]1(C(=O)CO)CC[C@@H](c2nc3c(-c4ccc(-c5ccccc5)nc4)cnn3c(N)c2S(C)(=O)=O)CC1` [Compound 130, 1-((1R,4R)-4-(7-amino-6-(methylsulfonyl)-3-(6-phenylpyridin-3-yl)pyrazolo[1,5-a]pyrimidin-5-yl)-1-(2-methoxyethoxy)cyclohexyl)-2-hydroxyethanone], with 1 to 100 nM; and `COC[C@]1(O)CC[C@H](c2nc3c(-c4ccc(-c5ccccc5)nc4)cnn3c(N)c2Br)CC1` [Compound 163, (1R,4R)-4-(7-amino-6-bromo-3-(6-phenylpyridin-3-yl)pyrazolo[1,5-a]pyrimidin-5-yl)-1-(methoxymethyl)cyclohexanol], with 1 to 100 nM.
Take `COCCO[C@]1(C(=O)NOCC2CC2)CC[C@@H](c2nc3c(-c4cnn(-c5ccccc5)c4)cnn3c(N)c2S(C)(=O)=O)CC1` [Compound 99, (1R,4R)-4-(7-amino-6-(methylsulfonyl)-3-(1-phenyl-1H-pyrazol-4-yl)pyrazolo[1,5-a]pyrimidin-5-yl)-N-(cyclopropylmethoxy)-1-(2-methoxyethoxy)-cyclohexane-carboxamide]: the 50% inhibitory concentration (IC50) fell in the range of 1 to 100 nM.
Then `COCCO[C@]1(C(=O)O)CC[C@@H](c2nc3c(-c4cnc(-c5ccn(C)n5)nc4)cnn3c(N)c2S(C)(=O)=O)CC1` [Compound 49, (1R,4R)-4-(7-amino-3-(2-(1-methyl-1H-pyrazol-3-yl)pyrimidin-5-yl)-6-(methylsulfonyl)-pyrazolo[1,5-a]-pyrimidin-5-yl)-1-(2-mcthoxyethoxy)-cyclohexanecarboxylic acid], with 1 to 100 nM; and `CC(=O)c1c(N)n2ncc(-c3cnn(-c4cnn(C)c4)c3)c2nc1[C@H]1CC[C@](O)(CO)CC1` [Compound 149, 1-(7-amino-5-((1S,4S)-4-hydroxy-4-(hydroxymethyl)-cyclohexyl)-3-(1′-methyl-1′H-1,4′-bipyrazol-4-yl)pyrazolo[1,5-a]pyrimidin-6-yl)ethanone], with 100 to 1000 nM; and `COC(=O)c1cc(-c2ccc(-c3cnn4c(N)c(C(C)=O)c([C@H]5CC[C@](O)(CO)CC5)nc34)cn2)ccc1OC` [Compound 154, methyl 5-(5-(6-acetyl-7-amino-5-((1S,4S)-4-hydroxy-4-(hydroxymethyl)-cyclohexyl)-pyrazolo-[1,5-a]pyrimidin-3-yl)pyridin-2-yl)-2-methoxybenzoate], with 1 to 100 nM.
Then `CC(=O)c1c(C2CCC(O)(CO)CC2)nc2c(-c3ccc(-c4ccc(O)nc4)nc3)cnn2c1N` (centres unmarked) [Compound 147, 1-(7-amino-3-(6′-hydroxy-2,3′-bipyridin-5-yl)-5-(4-hydroxy-4-(hydroxymethyl)-cyclohexyl)-pyrazolo-[1,5-a]pyrimidin-6-yl)ethanone], with 1 to 100 nM; and `COCCO[C@]1(C(=O)c2nnc[nH]2)CC[C@H](c2nc3c(-c4ccc(-c5ccccc5)nc4)cnn3c(N)c2S(C)(=O)=O)CC1` [Compound 124, ((1S,4S)-4-(7-amino-6-(methylsulfonyl)-3-(6-phenylpyridin-3-yl)pyrazolo[1,5-a]pyrimidin-5-yl)-1-(2-methoxyethoxy)cyclohexyl)(4H-1,2,4-triazol-3-yl)methanone], with 1 to 100 nM; and `COCCO[C@]1(C(=O)O)CC[C@@H](c2nc3c(-c4cnn(-c5ccc(S(C)(=O)=O)cc5)c4)cnn3c(N)c2S(C)(=O)=O)CC1` [Compound 53, (1R,4R)-4-(7-amino-6-(methylsulfonyl)-3-(1-(4-(methylsulfonyl)phenyl)-1H-pyrazol-4-yl)pyrazolo[1,5-a]pyrimidin-5-yl)-1-(2-methoxyethoxy)cyclohexanecarboxylic acid], with 100 to 1000 nM.
Then `COCCO[C@]1(C(=O)NOCC2CC2)CC[C@@H](c2nc3c(-c4ccc(-c5ccccc5)nc4)cnn3c(N)c2S(C)(=O)=O)CC1` [Compound 106, (1R,4R)-4-(7-amino-6-(methylsulfonyl)-3-(6-phenylpyridin-3-yl)pyrazolo[1,5-a]pyrimidin-5-yl)-N-(cyclopropylmethoxy)-1-(2-methoxyethoxy)-cyclohexane-carboxamide], with 1 to 100 nM.
Turning to `CCONC(=O)[C@]1(OCCOC)CC[C@H](c2nc3c(-c4cnn(-c5ccccc5)c4)cnn3c(N)c2S(C)(=O)=O)CC1` [Compound 98, (1R,4R)-4-(7-amino-6-(methylsulfonyl)-3-(1-phenyl-1H-pyrazol-4-yl)pyrazolo[1,5-a]pyrimidin-5-yl)-N-ethoxy-1-(2-methoxyethoxy)-cyclohexane-carboxamide], the half-inhibitory concentration (IC50) was 1 to 100 nM.
Then `CC(=O)c1c(C2CCC(O)(CO)CC2)nc2c(-c3ccc(-c4cccc(C(=O)O)c4)nc3)cnn2c1N` (centres unmarked) [Compound 151, 3-(5-(6-acetyl-7-amino-5-(4-hydroxy-4-(hydroxymethyl)-cyclohexyl)-pyrazolo-[1,5-a]pyrimidin-3-yl)pyridin-2-yl)benzoic acid], with 1 to 100 nM; and `COCCO[C@]1(C(=O)N(C)OC)CC[C@@H](c2nc3c(-c4cnn(-c5ccccc5)c4)cnn3c(N)c2S(C)(=O)=O)CC1` [Compound 97, (1R,4R)-4-(7-amino-6-(methylsulfonyl)-3-(1-phenyl-1H-pyrazol-4-yl)pyrazolo[1,5-a]pyrimidin-5-yl)-N-methoxy-1-(2-methoxyethoxy)-N-methylcyclohexane-carboxamide], with 1 to 100 nM.
